Laboratory results published in US11952362B2, “Compositions and methods for treating epigenetic disease” (The Regents of the University of California, priority 2018, dated 2024).
pIC50: −log10 of the molar value. Like-named read-outs stand apart in the source and are kept apart here. One block for each compound: values may come before it.

Assays:
[1] = tested on: NCI-460 lung cancer cell line; assay: Cell viability assay (CellTiter Glo), NCI-460; type: cell-based; settings: 120 h; NCI-460, 20 uM, day 5; read-out: % growth inhibition
Experimental: (§1) Pancreatic cancer cell lines (MIA PaCa-2 and CAPAN-2) were purchased from ATCC. MIA PaCa-2 were grown in DMEM and CAPAN-2 in McCoy's 5A (Gibco). Colon cancer cell lines (SW480 and HT-29) were purchased from ATCC. SW480 were grown in Leibovitz's L-15 (ATCC) and HT-29 in McCoy's 5A (Gibco). Lung cancer cell lines (NCI 460 and NCI 1975) were purchased from ATCC and grown in RPMI 1640 (Gibco). PC-3 prostate cancer cell line was purchased from ATCC and grown in F-12K (ATCC). Bladder cancer cell line 5637 was purchased from ATCC and RT-112 was purchased from Sigma-Aldrich and was grown in RPMI 1640 (Gibco). […] IL1B and TNFA mRNA levels were measured by qPCR analysis as described previously (Fang K et al. Am J Pathol, 188(3):586-99, 2018).
(§2) 1.8×10^3 cells/well were plated in quadruplicates in 96-well plate and treated with exogenously added MJK analogues 6 hours after plating. […] Cell growth was assessed 1, 3, 5 or 7 days after plating using the CellTiter Glo Luminescence Cell Viability Assay (Promega) according to manufacturer's protocol. For the experiments where the effect of combinatorial treatment of MJK-004 analogues with chemotherapy was assessed, treatment of cells with gemcitabine (10 nM) or 5-fluouracil (2000 nM) was performed one day after MJK-004 treatment and the cells were further treated with exogenously added MJK analogues 2 days later. […]

[2] = tested on: NCI-1975 lung cancer cell line; assay: Cell viability assay (CellTiter Glo), NCI-1975; type: cell-based; settings: 120 h; NCI-1975, 20 uM, day 5; read-out: % growth inhibition
Experimental: as §1, §2

[3] = tested on: CAPAN-2 pancreatic cancer cell line; assay: Cell viability assay (CellTiter Glo), CAPAN-2; type: cell-based; settings: Homo sapiens, 120 h; CAPAN-2, 20 uM, day 5; read-out: % growth inhibition
Experimental: as §1, §2

[4] = tested on: SW480 colon cancer cell line; assay: Cell viability assay (CellTiter Glo), SW480; type: cell-based; settings: Homo sapiens, 120 h; SW480, 20 uM, day 5; read-out: % growth inhibition
Experimental: as §1, §2

[5] = tested on: PC-3 prostate cancer cell line; assay: Cell viability assay (CellTiter Glo), PC-3; type: cell-based; settings: 120 h; PC-3, 20 uM, day 5; read-out: % growth inhibition
Experimental: as §1, §2

[6] = tested on: HT-29 colon cancer cell line; assay: Cell viability assay (CellTiter Glo), HT-29; type: cell-based; settings: Homo sapiens, 120 h; HT-29, 20 uM, day 5; read-out: % growth inhibition
Experimental: as §1, §2

[7] = tested on: MIA PaCa-2 pancreatic cancer cell line; assay: Cell viability assay (CellTiter Glo), MIA PaCa-2; type: cell-based; settings: Homo sapiens, 120 h; MIA PaCa-2, 20 uM, day 5; read-out: % growth inhibition
Experimental: as §1, §2

[8] = tested on: EJ28 bladder cancer cell line; assay: Cell viability assay (CellTiter Glo), EJ28; type: cell-based; settings: Homo sapiens, EJ-28; EJ28 cell growth
Experimental: as §1, §2

[9] = tested on: RT-112 bladder cancer cells; assay: Anchorage-independent cell growth assay (colonies in soft agar); type: cell-based; settings: RT-112, treated at 1xIC50 or 2xIC50 for 3 days
Experimental: Quadruplicate samples of 1×10^6 bladder cancer cells, that were previously untreated or treated with the MJK-004 at the concentration corresponding to the 1×IC50 or 2×IC50 for each cell line (as assessed at the third day after cells' plating and treatment) for 3 days, were assayed in 96-well plates for colony formation using the CytoSelect Cell Transformation kit (Cell Biolabs, Inc) according to manufacturer's protocol. Seven days later, live cells were detected using a colorimetric format. The MTT dye was added directly to the cultured cells followed by a detergent solution. Quantitation was performed using a standard microplate reader at 540-570 nm. Data were expressed as the mean±S.D.

[10] = tested on: BC3C bladder cancer cell line; assay: Cell viability assay (CellTiter Glo), BC3C; type: cell-based; settings: BC3C cell growth
Experimental: as §1, §2

[11] = Water solubility of MJK compounds; type: physicochemical
From the text: Solubility of MJK compounds: The development of an oral formulation for patients with auto-immune diseases, including Crohn's Disease, is preferential and less expensive, avoiding the need of hospitalization in comparison to the intracolonic (enema) administration. Thus, the water solubility and physical properties of the MJK compounds were examined. […] MJK-008 is the highest soluble MJK compound.

[12] = tested on: IL1B and TNFA mRNA levels in HDAC9-overexpressing NCM356 cells; assay: IL1B and TNFA mRNA (qPCR) in HDAC9-overexpressing NCM356 colonocytes; type: cell-based
Experimental: NCM356 colon epithelial cell lines were growth in M3:10 (INCELL, San Antonio, Tex.). A CMV-driven-HDAC9 vector was used to overexpress HDAC9 levels in NCM356 cells. IL1B and TNFA mRNA levels were measured by qPCR analysis as described previously (Fang K et al. Am J Pathol, 188(3):586-99, 2018).

Structure (SMILES): Cn1c(/C=C/C(=O)NO)ccc1/C=C/C(=O)c1cccc(F)c1 [MJK001, (E)-3-(5-((E)-3-(3-Fluorophenyl)-3-oxoprop-1-en-1-yl)-1-methyl-1H-pyrrol-2-yl)-N-hydro-xyacrylamide]
- inhibition at 20 µM [1]: 3.42%
- inhibition at 20 µM [2]: 11.8%
- inhibition at 20 µM [3]: 42.7%
- inhibition at 20 µM [4]: 58.4%
- inhibition at 20 µM [5]: 26.8%
- inhibition at 20 µM [6]: 19.7%
- inhibition at 20 µM [7]: 0%

- pIC50 [8]: 5.18
- pIC50 [10]: 5.23
Structure (SMILES): Cn1c(/C=C/C(=O)NO)ccc1/C=C/C(=O)c1cccs1 [MJK004, (E)-N-hydroxy-3-(1-methyl-5-((E)-3-oxo-3-(thiophen-2-yl)prop-1-en-1-yl)-1H-pyrrol-2-yl)acrylamide]
- ability to form colonies in soft agar [9]: reduced significantly

- pIC50 [8]: 3.45
- Solubility score [11]: worst solubility
- pIC50 [10]: 4.44
Structure (SMILES): Cn1c(/C=C/C(=O)NO)ccc1/C=C/C(=O)c1cccnc1 [MJK006, (E)-N-hydroxy-3-(1-methyl-5-((E)-3-oxo-3-(pyridin-3-yl)prop-1-en-1-yl)-1H-pyrrol-2-yl)acrylamide]

- Solubility score ([11]; hydrochloride): highest solubility
Structure (SMILES): Cl.Cn1c(/C=C/C(=O)NO)ccc1/C=C/C(=O)c1cccnc1 [MJK008, (E)-N-Hydroxy-3-(1-methyl-5-((E)-3-oxo-3-(pyridin-3-yl)prop-1-en-1-yl)-1H-pyrrol-2-yl)ac-rylamide hydrochloride]
- IL1B and TNFA mRNA levels (inflammatory response) [12]: reduced substantially the inflammatory response
